Usually IC50 stands for the concentration that gives 50% inhibition.

One assay deals with ALD patient fibroblasts. Put plainly: Reduction in C26:0 LPC in ALD patient fibroblasts in vitro. As to conditions: Patient Fibroblast (CALD 1), half maximal reduction in C26:0 LPC, each number a separate measurement. It is filed as cell-based, human. The protocol:
Lysophosphatidylcholine (LPC) VLCFA were generated from straight chain VLCFA (SC-VLCFA) and were used clinically for newborn screening (Vogel et al., Mol. Genet. Metab. (2015) 114(4):599-603). In vitro efficacy studies were performed by measuring LPC VLCFA level (measured as LPC synthesis) in various cell lines, specifically in 1) human HEK cells, 2) patient derived cells, and 3) human microglia, which are disease relevant CNS cells. Compound 87's dose response relationships and IC50 values were measured in HEK cells, primary patient fibroblasts, immortalized patient lymphocytes, and a human microglial cell line. […]
Primary patient fibroblasts were obtained from Coriell Institute for Medical Research. […] The plate was sealed with a plate tape and put at −80° C. for further VLCFA extraction and VLCFA quantitation on LC-MS, as described below.
VLCFA Extraction and Quantitation on LCMS:
Treated cells were transferred to a polypropylene v-bottom plate and then centrifuged at 1690×g for 10 minutes. […] The plates were then sealed with pierceable capmats (Micronic MP53017) and stored at −20° C. until further analyzed using UPHLC/Mass Spectrometry Readout, as described above in example 2.1, which measured the integration of ^13C into lysophosphatidylcholine (LPC) indicated fatty acid elongation. […]

Assay [1] deals with wild-type male cynomolgus monkeys. Put plainly: Reduction of blood C26:0 LPC in vivo in cynomolgus monkeys. Also on record: species or system cynomolgus monkey. The following applies: 30 mg/kg PO QD, after 7 days of dosing. On the procedure:
A LC-MS/MS method of analyzing Lysophosphatidylcholine (LPC) in whole blood (dried blood spot card, DBS) and brain tissue samples was developed for measuring the abundance of saturated C16, C18, C20, C22, C24 and C26 LPC in DBS and brain samples. Whole blood was collected with Whatman DMPK-C DBS card at an approximate volume of 20 μL at each time point. Brain tissue was collected at the end point of the study. Samples were prepared and LC-MS/MS analysis was performed as described below.
For DBS bioanalysis, the DBS card was punched at 3 mm in diameter using a semi-automated DBS card puncher. To each punched spot 200 μL of pure methanol was added. […]
The supernatant obtained from each sample was injected into a LC-MS/MS system (Agilent Technologies, Santa Clara, Calif. and Applied Biosystems, Framingham, Mass.) for analysis. […] LPCs were detected by an AB Sciex API-6500 triple quadrupole MS with electrospray ionization in the mode of multiple reaction monitoring. Ions of Q1 were monitored at m/z of 496.6, 524.6, 552.6, 580.6, 608.6 and 636.6 for LPC 16:0, LPC 18:0, LPC 20:0, LPC 22:0, LPC 24:0 and LPC 26:0, respectively. […] C16:0 LPC levels were expressed as a concentration. […]
The vehicle used was 2% TPGS and Compound 87 doses were prepared in 2% TPGS. […] DBS cards were stored at 4° C. until they could be analyzed for VLCFAs. DBS samples were prepared and analyzed using LC-MS/MS as described above.

The structures appear in SMILES notation.

For `O=C(Nc1ccn(-c2ccnc(F)c2)n1)C1(c2ccccc2F)CC1` [Compound 87, 1-(2-fluorophenyl)-N-[1-(2-fluoro-4-pyridyl)pyrazol-3-yl]cyclopropanecarboxamide], the concentration for half-maximal inhibition (IC50) was found to be 17 nM with ALD patient fibroblasts (Homo sapiens, Fibroblast) and 23 nM in the assay on ALD patient fibroblasts. The “reduction in blood C26:0 LPC” value in assay [1] is given as ~50%.

These data come from patent US20180251431A1 (VERTEX PHARMACEUTICALS INCORPORATED, priority 2016, published 2018).
